Measured values from the supplement of paper PMC10307832.

Assays:
Experiment in all cases: relative viability (nuclei count vs DMSO), 5 days (fraction); higher = more cells survive
RAF265 + Lapatinib = compound: Cn1c(Nc2ccc(C(F)(F)F)cc2)nc2cc(Oc3ccnc(-c4ncc(C(F)(F)F)[nH]4)c3)ccc21 [RAF265] + CS(=O)(=O)CCNCc1ccc(-c2ccc3ncnc(Nc4ccc(OCc5cccc(F)c5)c(Cl)c4)c3c2)o1 [Lapatinib] (partner 2 µM)
How it was run: (§1)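 Each reported value is a median over duplicate plates. It expresses relative viability: treated-well nuclei count divided by vehicle-well nuclei count. Lung cancer cell lines in 1536-well plates were dosed by pin tool a day after seeding, alone with one drug or with a fixed anchor-drug dose plus five library-drug doses (not always all listed) in √10 steps, and nuclei were counted after 5 days.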

Doramapimod + Pemetrexed = compound: Cc1ccc(-n2nc(C(C)(C)C)cc2NC(=O)Nc2ccc(OCCN3CCOCC3)c3ccccc23)cc1 [Doramapimod] + Nc1nc2[nH]cc(CCc3ccc(C(=O)N[C@@H](CCC(=O)O)C(=O)O)cc3)c2c(=O)[nH]1 [Pemetrexed] (partner 0.2 µM)
How it was run: as §1

RAF265 + Bortezomib = compound: Cn1c(Nc2ccc(C(F)(F)F)cc2)nc2cc(Oc3ccnc(-c4ncc(C(F)(F)F)[nH]4)c3)ccc21 [RAF265] + CC(C)C[C@H](NC(=O)[C@H](Cc1ccccc1)NC(=O)c1cnccn1)B(O)O [Bortezomib] (partner 0.002 µM)
How it was run: as §1

RAF265 + Tozasertib = compound: Cn1c(Nc2ccc(C(F)(F)F)cc2)nc2cc(Oc3ccnc(-c4ncc(C(F)(F)F)[nH]4)c3)ccc21 [RAF265] + Cc1cc(Nc2cc(N3CCN(C)CC3)nc(Sc3ccc(NC(=O)C4CC4)cc3)n2)n[nH]1 [Tozasertib] (partner 0.1 µM)
How it was run: as §1

Cell Line	relative viability (RAF265 + Lapatinib; first compound 0.01 µM)	relative viability (RAF265 + Lapatinib; first compound 0.03162 µM)	relative viability (RAF265 + Lapatinib; first compound 0.1 µM)	relative viability (RAF265 + Lapatinib; first compound 0.3162 µM)	relative viability (RAF265 + Lapatinib; first compound 1 µM)	relative viability (Doramapimod + Pemetrexed; first compound 0.02 µM)	relative viability (Doramapimod + Pemetrexed; first compound 0.06325 µM)	relative viability (Doramapimod + Pemetrexed; first compound 0.2 µM)	relative viability (Doramapimod + Pemetrexed; first compound 0.6325 µM)	relative viability (Doramapimod + Pemetrexed; first compound 2 µM)	relative viability (RAF265 + Bortezomib; first compound 0.01 µM)	relative viability (RAF265 + Bortezomib; first compound 0.03162 µM)	relative viability (RAF265 + Bortezomib; first compound 0.1 µM)	relative viability (RAF265 + Bortezomib; first compound 0.3162 µM)	relative viability (RAF265 + Bortezomib; first compound 1 µM)	relative viability (RAF265 + Tozasertib; first compound 0.01 µM)	relative viability (RAF265 + Tozasertib; first compound 0.03162 µM)	relative viability (RAF265 + Tozasertib; first compound 0.1 µM)	relative viability (RAF265 + Tozasertib; first compound 0.3162 µM)	relative viability (RAF265 + Tozasertib; first compound 1 µM)
EMC-BAC-2	0.908	0.856	0.857	0.993	0.449	0.455	0.426	0.418	0.46	0.369	1.07	1	1.08	1.05	0.351	0.28	0.266	0.209	0.202	0.082
NCI-H520	0.894	0.873	0.776	0.694	0.498	0.607	0.638	0.732	0.537	0.683	0.389	0.547	0.545	0.486	0.202	0.448	0.414	0.384	0.491	0.338
NCI-H1755	1.06	1.06	1.03	0.974	0.622	0.328	0.371	0.435	0.394	0.35	1.01	0.921	0.892	0.842	0.536	0.556	0.634	0.598	0.552	0.402
NCI-H1993	0.789	0.833	0.995	0.908	0.967	0.627	0.517	0.504	0.658	0.558	1.06	0.941	1.09	1.01	0.795	0.606	0.57	0.571	0.593	0.594
NCI-H23	1.2	0.87	0.75	0.545	0.409	0.607	0.749	0.679	0.703	0.533	1.21	0.937	0.606	0.621	0.353	0.368	0.373	0.334	0.254	0.172
NCI-H1437	0.897	0.776	0.77	0.784	0.78	0.291	0.287	0.323	0.329	0.302	0.541	0.528	0.419	0.56	0.343	0.408	0.437	0.427	0.45	0.365
NCI-H2405	1.09	1.08	0.924	0.999	0.607	1.13	1.13	1.02	1.18	1.01	0.985	0.898	0.995	0.975	0.422	0.798	0.736	0.876	0.853	0.458
NCI-H2023	0.905	0.77	1.13	0.579	0.727	0.215	0.219	0.226	0.259	0.215	1.07	1.08	1.07	0.786	0.794	0.314	0.497	0.466	0.286	0.183
